Assay results taken from patent US20020160975A1, “Conserved XIAP-interaction motif in caspase-9 and Smac/DIABLO for mediating apoptosis” (Thomas Jefferson University, priority 2001, published 2002).
Each block holds one molecule with its values, some of them ahead of it. Ends that are not written are not given here.

Tests used:
[1] = molecular target: T1, Smac/DIABLO binding to BIR3 (Homo sapiens, UniProt P98170); experiment: In vitro binding of BIR3 to immobilized Smac-GST with or without competing peptide; details: 200 μM peptide; Smac-GST immobilized onto glutathione resin
T1 construct: Smac-GST was immobilized onto glutathione resin and then incubated with BIR3

[2] = molecular target: T2, isolated BIR3 domain of XIAP (Homo sapiens, UniProt P98170); experiment: In vitro interaction assay of GST fusion proteins with 35S-labeled BIR3; type: binding; details: C-terminal GST fusion proteins immobilized onto glutathione-affinity resin
T2 construct: full length XIAP or the isolated BIR3 domain of XIAP; made in house; host or cells: in vitro translation (cell-free)
Text: (§1) The C-terminal GST fusion proteins were expressed in bacteria and then immobilized onto glutathione-affinity resin. […] The caspase-9 deletion mutants used in these studies are represented by bar diagrams above the panel in FIG. 10.

XIAP [3] = molecular target: T3, XIAP (Homo sapiens, UniProt P98170); experiment: Cytochrome c-dependent caspase-3 activation in 293T S100 extracts containing XIAP (DEVD-AMC); type: biochemical; details: 25, 100 and 500 μM peptide, XIAP 10 nM, cytochrome c and dATP
T3 construct: made in house; host or cells: in vitro translation (cell-free)
Experimental: The activity of caspase-3 in the S100 extracts was measured using the peptide substrate DEVD-AMC.

full length XIAP = molecular target: T4, full length XIAP (Homo sapiens, UniProt P98170); experiment: In vitro interaction assay of GST fusion proteins with 35S-labeled XIAP; type: binding; details: C-terminal GST fusion proteins immobilized onto glutathione-affinity resin
T4 construct: full length XIAP or the isolated BIR3 domain of XIAP; made in house; host or cells: in vitro translation (cell-free)
Text: as §1

[4] = molecular target: T5, caspase-9-p12 binding to BIR3 (Homo sapiens, UniProt P98170); experiment: In vitro binding of BIR3 to immobilized p12-GST with or without competing peptide; details: 200 μM peptide; p12-GST immobilized onto glutathione resin
T5 construct: made in house; host or cells: bacteria (GST fusion)
Experimental: as §1
The interactions were analyzed as in Example 3.

XIAP [5] = molecular target: T3, XIAP; experiment: Far Western blot analysis with 35S-labeled XIAP; type: binding
Experimental: Recombinant WT caspase-9, E306/D315/D330A, D315/330A, or D315A caspase-9 mutants, p12, p10, or Smac/DIABLO GST-fusion proteins were fractionated by SDS-PAGE and then blotted onto a nitrocellulose membrane using standard Western blotting technique. The proteins on the nitrocellulose membrane were denatured in a buffer (10 mM sodium phosphate pH 7.4, 150 mM sodium chloride, 5 mM magnesium chloride and 1 mM DTT) containing 6 M guanidine-HCl. These proteins were then renatured by gradual reduction of guanidine-HCl to 0.3 M. The membrane was blocked overnight in the same buffer containing 5% non-fat dry milk. The membrane was then probed with ^35S-labeled in vitro translated XIAP in the same buffer with 1% non-fat dry milk. The membrane was washed at least three times and then exposed to X-ray film.

XIAP-BIR3 = molecular target: T6, XIAP-BIR3 (Homo sapiens, UniProt P98170); experiment: DEVD-AMC cleaving activity in caspase-9-depleted S100 extracts with or without XIAP-BIR3; type: biochemical; details: 10 nM caspase-9 protein; XIAP-BIR3 20 nM; DEVD-AMC 100 μM; 30 minutes
T6 construct: purified XIAP-BIR3 (20 nM)
Experimental: To test for enzymatic activity, caspase-9-depleted S100 extracts (20 μg) from Apaf-1-deficient mouse embryonic fibroblasts were incubated with recombinant Apaf-1, cytochrome c, dATP, and equal amounts (10 nM) of WT caspase-9 or the caspase-9 Δlinker mutant protein in the presence (+) or absence (−) of purified XIAP-BIR3 (20 nM). The reactions were carried out in the presence of the peptide substrate DEVD-AMC (100 μM) for 30 minutes, and substrate cleavage was measured by luminescence spectrometry.
To test for enzymatic activity, caspase-9-depleted S100 extracts (20 μg) from Apaf-1-deficient mouse embryonic fibroblasts were incubated with recombinant Apaf-1, cytochrome c, dATP, and equal amounts (10 nM) of WT caspase-9, caspase-9 AT316, 317SG, or AT316, 317GG mutant proteins in the presence (+) or absence (−) of purified XIAP-BIR3 (20 nM). The reactions were carried out in the presence of the peptide substrate DEVD-AMC (100 μM) for 30 minutes, and substrate cleavage was measured by luminescence spectrometry.

procaspase-3 C163A = experiment: Procaspase-3 processing and DEVD-AMC cleavage by caspase-9 reconstituted with Apaf-1; type: biochemical; details: 20 nM each with purified Apaf-1; cytochrome c and dATP
Experimental: Procaspase-3 processing assays were generally performed as described in Srinivasula, S. M. et al. J Biol Chem 275:36152-36157, 2000. In this assay, purified recombinant procaspase-3 C163A was incubated with equal amounts of recombinant WT or triple mutant caspase-9 protein (20 nM) in the presence (+) or absence (−) of recombinant Apaf-1 (20 nM). The reaction mixtures were stimulated with cytochrome c (50 ng/μl) and dATP (1 mM), incubated for 0-60 minutes at 30° C., and then analyzed by SDS-PAGE and western blot analysis (FIG. 3).
Caspase-3 enzymatic assays with the tetrapeptide substrate DEVD-AMC were generally performed as described in Srinivasula, S. M. et al. J Biol Chem 275:36152-36157, 2000. In this caspase-3 enzymatic assay, caspase-9-depleted S100 extracts from Apaf-1-deficient mouse embryonic fibroblasts were incubated with equal amounts of recombinant WT and triple mutant caspase-9 proteins together with Apaf-1, cytochrome c and dATP. The controls used in these assays represent WT and triple mutant caspase-9 proteins incubated as above without cytochrome c and dATP. The reactions were carried out in the presence of 100 μM of DEVD-AMC for 0-120 minutes, and substrate cleavage was measured by luminescence spectrometry using a Perkin Elmer Luminescence spectrometer and represented in arbitrary spectrometric units.

[6] = molecular target: T7, X-linked inhibitor of apoptosis protein (XIAP), full length (UniProt P98170 1-497); experiment: gel filtration on Superose 6 and immunoblot of fractions
T7 construct: Used as in vitro translated 35S-labeled full length XIAP (pull-down, Far western) or as purified XIAP (holoenzyme experiments); also called full length XIAP; 35S-labeled XIAP
T7 sequence (P98170 whole entry): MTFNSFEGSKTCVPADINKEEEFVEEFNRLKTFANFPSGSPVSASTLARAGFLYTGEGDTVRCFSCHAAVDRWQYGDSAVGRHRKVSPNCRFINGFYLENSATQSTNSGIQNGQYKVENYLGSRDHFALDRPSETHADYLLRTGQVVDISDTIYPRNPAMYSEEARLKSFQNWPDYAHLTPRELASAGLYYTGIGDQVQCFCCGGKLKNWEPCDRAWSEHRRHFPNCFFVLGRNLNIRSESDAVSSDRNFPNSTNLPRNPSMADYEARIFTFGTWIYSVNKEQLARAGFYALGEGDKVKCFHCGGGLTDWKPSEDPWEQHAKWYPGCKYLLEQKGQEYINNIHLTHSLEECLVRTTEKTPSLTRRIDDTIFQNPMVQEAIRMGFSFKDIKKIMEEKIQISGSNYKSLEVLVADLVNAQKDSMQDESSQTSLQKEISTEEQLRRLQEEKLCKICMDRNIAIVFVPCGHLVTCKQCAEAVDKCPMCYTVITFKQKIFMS
Experimental: After incubation, the reaction mixtures were diluted with oligomerization buffer I, and aliquots of each sample (100 μl) were loaded onto a Superose 6 FPLC column.
Samples were then analyzed by SDS-PAGE and autoradiography.

T3 sequence (P98170 whole entry): as above
T5 sequence (P98170 238-358 limits assumed): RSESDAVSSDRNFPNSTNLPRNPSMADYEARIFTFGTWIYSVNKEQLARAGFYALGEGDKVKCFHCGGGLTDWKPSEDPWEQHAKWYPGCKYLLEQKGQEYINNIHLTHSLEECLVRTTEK
T6 sequence (P98170 238-358 limits assumed): as above
T1 sequence (P98170 238-358 limits assumed): as above
T2 sequence (P98170 238-358 limits assumed): as above
T4 sequence (P98170 whole entry, the tested form may be a part): as the sequence (P98170 whole entry) above

Molecule: ATPFQEGLRTFDQLD [linker peptide]
- inhibition of Smac/DIABLO binding to BIR3 [1]: completely inhibited
- interaction with isolated BIR3 domain of XIAP [2]: able to interact
- promoting caspase-3 activation in XIAP containing extracts (XIAP [3]): as effective in promoting caspase-3 activation as the Smac-N5 or N7 peptides
- interaction with full length XIAP (full length XIAP): able to interact

- inhibition of binding of caspase-9-p12 to BIR3 [4]: completely inhibited
Molecule: AVPIAQK [Smac-N7, AVPIAQK]

B1: Δlinker: caspase-9 with residues 316 to 330 of SEQ ID NO:1 deleted (protein, listed as Homo sapiens)
chain: MDEADRRLLRRCRLRLVEELQVDQLWDALLSRELFRPHMIEDIQRAGSGSRRDQARQLIIDLETRGSQALPLFISCLEDTGQDMLASFLRTNRQAAKLSKPTLENLTPVVLRPEIRKPEVLRPETPRPVDIGSGGFGDVGALESLRGNADLAYILSMEPCGHCLIINNVNFCRESGLRTRTGSNIDCEKLRRRFSSLHFMVEVKGDLTAKKMVLALLELAQQDHGALDCCVVVILSHGCQASHLQFPGAVYGTDGCPVSVEKIVNIFNGTSCPSLGGKPKLFFIQACGGEQKDHGFEVASTSPEDESPGSNPEPDAISSLPTPSDIFVSYSTFPGFVSWRDPKSGSWYVETLDDIFEQWAHSEDLQSLLLRVANAVSVKGIYKQMPGCFNFLRKKLFFKTS
- ability to interact with BIR3 (Far western, FIG. 12B) (XIAP [5]; recombinant caspase-9 mutants): lost significantly the ability to interact
- enzymatic activity (DEVD-AMC cleaving) in presence of XIAP-BIR3 (XIAP-BIR3): did not inhibit enzymatic activity, even in the presence of XIAP-BIR3

- binding of XIAP by Far Western (XIAP [5]; proteins on nitrocellulose membrane, denatured and renatured): not able to bind
- binding result [6]: no binding
B2: triple mutant procaspase-9 (E306/D315/D330A) (enzyme)
chain: MDEADRRLLRRCRLRLVEELQVDQLWDALLSRELFRPHMIEDIQRAGSGSRRDQARQLIIDLETRGSQALPLFISCLEDTGQDMLASFLRTNRQAAKLSKPTLENLTPVVLRPEIRKPEVLRPETPRPVDIGSGGFGDVGALESLRGNADLAYILSMEPCGHCLIINNVNFCRESGLRTRTGSNIDCEKLRRRFSSLHFMVEVKGDLTAKKMVLALLELAQQDHGALDCCVVVILSHGCQASHLQFPGAVYGTDGCPVSVEKIVNIFNGTSCPSLGGKPKLFFIQACGGEQKDHGFEVASTSPEDASPGSNPEPAATPFQEGLRTFDQLAAISSLPTPSDIFVSYSTFPGFVSWRDPKSGSWYVETLDDIFEQWAHSEDLQSLLLRVANAVSVKGIYKQMPGCFNFLRKKLFFKTS
notes: Unprocessed protein; also called uncleavable caspase-9; mutant caspase-9
- processing procaspase-3 C163A or inducing DEVD-AMC cleavage (procaspase-3 C163A): as efficient as the fully processed WT caspase-9
